# Reference: patent US20060079497A1, “Lavendamycin analogues and methods of synthesizing and using lavendamycin analogues” (Ball State University, priority 2004, published 2006)
# Columns and labels:
# tumor = test: Antitumor activity (applicant's earlier studies)
# mice [1] = test: Animal toxicity studies in mice (National Cancer Institute and other studies); details: SCID mice, 300 mg/kg/day for 10 days
# mice [2] = details: cited from earlier work
# [3] = biological target: T1, HIV reverse transcriptase (HIV-RT) (Human immunodeficiency virus type 1 group M subtype B, UniProt P04585); test: HIV-RT assay (3H-TTP incorporation, modified assay of Okada et al.); assay type: biochemical; details: Mean IC50 ± SEM (no. of expts), 50% inhibition of HIV RT activity toward 1 unit of enzyme
# T1 construct: 1 unit/mL of HIV-RT (Worthington Biochemical Corp., Freehold, N.J.); purchased Worthington Biochemical Corp., Freehold, N.J
# Protocol: Briefly, the analogues were initially dissolved in either DMSO or HEPES buffer (pH 7.2) and then diluted to the appropriate concentration before addition to the assay mixtures. […] Several control wells without any inhibitors were also included on each microtiter plate. The reactions were allowed to proceed for 1 h at 37° C. […] A more detailed description of reaction conditions is provided below in the Examples. The concentration of drug which inhibited 50% of the enzyme activity (IC50) was determined by using the computer software program Calcusyn, which plots the dose-effect curves from the inhibition data and calculates the IC50 for each drug.
# The assay procedure described below is adapted from Okada et al. (Okada, H.; Mukai, H.; Inouye, Y; Nakamura, S. “Biological Properties of Streptonigrin Derivatives II. Inhibition of Reverse Transcriptase Activity,” J. Antibiot., 1986, 39, 306-308). The lavendamycin analogs were initially dissolved in DMSO at a concentration of 1 mg/mL. Occasionally, mild sonication and heat were used to dissolve the less soluble compounds. The dissolved analogs were then serially diluted in distilled water to achieve concentrations in the final reaction mixture ranging from 0.5-15 μM. In addition to the lavendamycin analogs, the final reaction mixture contained 100 mM Tris-HCl (pH 8.0), 5 mM MgCl2, 5 mM dithiothreitol, 60 mM NaCl, 0.2 mM [^3H] thymidine triphosphate(5 μCi well), 4 μg/mL poly (rA)-oligo(dT)12-18 (Amersham Pharmacia Biotech, Piscataway, N.J.) and 1 unit/mL of HIV-RT (Worthington Biochemical Corp., Freehold, N.J.) in a total volume of 300 μL. For each assay, the reaction mixture containing 8× buffer, double distilled H2O, ^3HTTP, template-primer and HIV-RT was pre-mixed in a 15-mL sterile tube in quantities required for the particular experiment. After adding the enzyme, the reaction mixture was mixed and kept on ice. The inhibitors, either AZT(Moravek Biochemicals, Brea, Calif.), analogs or both were added to appropriate wells in a 24 well microtiter plate and ddH2O was added to each well to bring the volume of all test wells to 100 μL. Two hundred μL of the chilled reaction mixture was then added to each of the test wells, mixed, and incubated for 1 hr at 37° C. Several control wells with no inhibitors were included on each test plate. After stopping the reactions with 25 μL 0.1 M EDTA, triplicate samples of 15 μL from each test well were spotted on DE81 ion exchange filter paper squares (Whatman Paper, Maidstone, England). After drying, each filter was washed for 10 minutes three times with 5% TCA-NHPO4, three times with 0.6M NaCl-[…] Na Citrate, one time with ddH2O and one time with 95% ethanol. After drying the individual filter papers were added to 5 mL Scintiverse E (Fisher Scientific, Chicago, Ill.) scintillation fluid and the amount of 3H-TTP uptake measured as counts per minute on a Beckman liquid scintillation counter. […] The results were then analyzed using Calcusyn, a windows software program for dose effect analysis designed by T. -C. Chou and M. P. Hayball and published by Biosoft® (UK).
# [4] = Animal toxicity studies in mice (National Cancer Institute and other studies); details: mouse, in vivo
# [5] = Cytotoxicity assay (MTT), normal murine spleen cells stimulated with concanavalin A; assay type: cell-based; details: normal murine spleen cells stimulated with concanavalin A; normal mouse spleen stimulated with concanavalin A inhibited by 50%; read-out: Mean CC50 (Normal Mouse Spleen) ± SEM (no. of expts)
# Protocol: (§1) Normal murine spleen cells were washed in HBSS, cultured at 2.5×10^6 or 5×10^6 cells per mL in RPMI 1640 (with Hepes) complete medium with 2 mM-L-glutamine, 1 mM sodium pyruvate, 0.05 mM β-mercaptoethanol, penicillin, streptomycin, and amphotericin B with 10% fetal calf serum and Concanavalin A (ConA) at 2.5 μg/mL in a 96-well microtiter plate. A range of diluted analogs were added to triplicate culture wells and the cells were incubated at 37° C. in 5% CO2. Wells containing cells, media and ConA were used as controls. Forty-eight hours post incubation, 20 μL of the vital dye MTT (3-[4,5-Dimethylthiazol-2-yl]-2,5-diphenyltetrazolium bromide; thiazolyl blue) at 5 mg/mL was added to each well and the cultures re-incubated for 4-6 hours. Following centrifugation, the supernatants were decanted and the stained cells were resuspended in 100 μL of 0.4% HCl acidified isopropanol. The optical densities of each well were read at 600 nm using a Cambridge Technologies series 700 microplate reader. The human lymphocytic cell lines CCRF-CEM (ATCC: HTB 176) and H-9 (ATCC: CCL 119) were subcultured from recently cultured cells grown in complete RPMI 1640 medium as described above but without the β-mercaptoethanol and ConA at 6.25×10^5 and 2×10^6 per mL in a 96 well culture plate. These cell numbers represented log phase and early stationary phase of the freshly cultured cells. As these cell lines rapidly reproduce without mitogenic stimulation, Con A was not used. A range of analogues or media alone was added in triplicate to the cultures and the cultures incubated, pulsed with MTT, harvested and their growth estimated as described above for the murine cultures. The CC50 or the concentration of drug which inhibited cell growth as estimated by MTT formazan production to 50% of that of untreated control cells was determined by linear interpolation for each lavendamycin analog.
# [6] = Cytotoxicity assay (MTT), human lymphocytic cell lines, pooled data; assay type: cell-based; details: human lymphocytic cell lines CCRF-CEM and H-9, pooled data, H-9 and CEM inhibited by 50%, read-out: Mean CC50 (Human Cell Lines) ± SEM (no. of expts)
# Protocol: as §1
smiles,measurement,setting,value
"COC(=O)c1nc(-c2ccc3c(n2)C(=O)C(N)=CC3=O)c2[nH]c3ccccc3c2c1C [Compound 2b, lavendamycin methyl ester, reference compound]",antitumor activity,tumor,highly active antitumor agents
"CCCCCCCCOC(=O)c1cc2c([nH]c3ccccc32)c(-c2ccc3c(n2)C(=O)C(NC(C)=O)=CC3=O)n1 [Compound 15, 7-N-Acetyldemethyllavendamycin n-Octyl Ester]",tolerability,mice [1],no animal death or loss of weight
COC(=O)c1cc2c([nH]c3ccccc32)c(-c2ccc3c(n2)C(=O)C(N)=C(OC)C3=O)n1,melting point,,> 280 °C
COC1=C(N)C(=O)c2nc(-c3nc(C(=O)O)c(C)c(-c4ccc(OC)c(OC)c4O)c3N)ccc2C1=O [streptonigrin],lethal dose,mice [2],≥ 0.4 mg/kg
COc1cccc2c1C(=O)c1c(O)c3c(c(O)c1C2=O)C[C@@](O)(C(=O)CO)C[C@@H]3O[C@H]1C[C@H](N)[C@H](O)[C@H](C)O1 [adriamycin],maximally tolerated dose,mice [2]; once a week for three weeks,below 10 mg/kg
COC(=O)c1nc(-c2ccc3c(n2)C(=O)C(N)=C(OC)C3=O)c2[nH]c3ccccc3c2c1C,melting point,,> 280 °C
Cc1c(C(=O)O)nc(-c2ccc3c(n2)C(=O)C(N)=CC3=O)c2[nH]c3ccccc3c12 [lavendamycin],maximum tolerated dose,mice [2]; reported,12.8 mg/kg
"NC(=O)c1cc2c([nH]c3ccccc32)c(-c2ccc3c(n2)C(=O)C(N)=CC3=O)n1 [Compound 21, Demethyllavendamycin Amide]",IC50,[3],20.5 ± 5 µM
same,MTD,[4],400 mg/kg
same,antitumor activity,tumor,highly active antitumor agents
same,CC50 at 48 h,[5],15 ± 2 µM
same,CC50 at 48 h,[6],17 ± 3 µM
